Results taken from patent US10912818B2, “Use of microorganisms for the prevention and treatment of intestinal diseases” (Ludwig Stocker Hofpfisterei GmbH, priority 2013, dated 2021).
“Also recorded” adds a separate entry of the source.

Key:
[1] = system: corpus circular muscle preparations; assay: Motility: contractile force of corpus circular muscle preparations in organ bath; format: cell-based, guinea pig
[2] = system: distal colon mucosa/submucosa preparations; assay: Ussing chamber: short circuit current (chloride ion secretion) across colonic mucosa/submucosa preparations; format: cell-based, guinea pig

Structure (SMILES): NC1=N[C@H](O)[C@H]2[C@H]3O[C@]4(O)O[C@@H]([C@@H](O)[C@@]2(N1)[C@@H]4O)[C@]3(O)CO [TTX, Tetrodotoxin]
- Effect of TTX pre-treatment on muscle contraction stimulated by ACH and extracts [1]: no significant effect

Structure (SMILES): CN1[C@@H]2CC[C@H]1C[C@@H](OC(=O)C(CO)c1ccccc1)C2 (stereo partly drawn) [atropine]
- Effect of atropine applied mucosally on secretion stimulated by ACH applied serosally [2]: secretion was inhibited
- Effect of atropine applied on mucosal side on secretion stimulated from the mucosal side [2]: only partially inhibiting ACH activity; also recorded: not mucosally
- Effect of atropine applied on serosal side on secretion stimulated from the mucosal side [2]: significantly inhibited; also recorded: completely abrogated secretion
- Effect of atropine pre-treatment on secretion stimulated by ACH and extracts [2]: completely abolished the response; also recorded: completely abrogated secretion stimulation
- Effect of atropine pre-treatment on muscle contraction stimulated by ACH and extracts [1]: completely abrogated stimulation; also recorded: completely abolished
